One assay deals with T1, GatFABΔHY (Saccharomyces cerevisiae, UniProt Q03557).
T1 construct: gene HER2; heterotrimer; E. coli host; with Glutamyl-tRNA(Gln) amidotransferase subunit B, mitochondrial; Glutamyl-tRNA(Gln) amidotransferase subunit F, mitochondrial
T1 sequence (Q03557 1-464): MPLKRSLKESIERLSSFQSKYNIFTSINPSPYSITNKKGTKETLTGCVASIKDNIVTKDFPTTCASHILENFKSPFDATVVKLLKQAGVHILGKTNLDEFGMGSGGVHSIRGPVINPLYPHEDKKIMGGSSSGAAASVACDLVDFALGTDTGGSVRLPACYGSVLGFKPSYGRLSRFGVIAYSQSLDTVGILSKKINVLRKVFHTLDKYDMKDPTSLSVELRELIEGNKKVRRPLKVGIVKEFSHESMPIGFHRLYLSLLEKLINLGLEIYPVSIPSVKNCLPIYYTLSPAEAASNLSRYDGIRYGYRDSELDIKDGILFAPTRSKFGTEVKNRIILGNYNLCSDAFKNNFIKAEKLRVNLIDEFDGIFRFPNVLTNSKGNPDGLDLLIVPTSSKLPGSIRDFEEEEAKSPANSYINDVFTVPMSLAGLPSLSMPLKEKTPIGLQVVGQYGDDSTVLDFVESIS
T1 sequence (P33893 16-329 partner): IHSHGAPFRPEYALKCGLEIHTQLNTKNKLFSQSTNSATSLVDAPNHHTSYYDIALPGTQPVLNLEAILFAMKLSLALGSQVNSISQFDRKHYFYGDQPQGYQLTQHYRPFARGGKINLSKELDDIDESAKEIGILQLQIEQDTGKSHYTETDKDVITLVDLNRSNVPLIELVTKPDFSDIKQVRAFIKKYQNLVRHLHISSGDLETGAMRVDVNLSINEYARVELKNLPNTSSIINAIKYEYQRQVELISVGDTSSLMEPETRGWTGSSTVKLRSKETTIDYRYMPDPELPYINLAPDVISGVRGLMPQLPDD
T1 sequence (P53260 24-183 partner): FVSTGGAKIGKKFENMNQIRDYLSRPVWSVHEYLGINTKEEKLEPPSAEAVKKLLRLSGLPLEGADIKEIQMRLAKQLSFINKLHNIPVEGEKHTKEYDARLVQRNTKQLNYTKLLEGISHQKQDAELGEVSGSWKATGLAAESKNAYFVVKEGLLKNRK
Briefly: X-ray crystal structure, […] Å. Type of assay: binding. Particulars: 10 mM glutamine added before crystallization; GatA glutaminase site (R334, D418, near S154).

Assay [1] concerns the target T2, GatFABF24–183 (pseudo-wild-type, full-length GatFAB) (Saccharomyces cerevisiae, UniProt Q03557).
T2 construct: gene HER2; heterotrimer; E. coli host; with Glutamyl-tRNA(Gln) amidotransferase subunit B, mitochondrial; Glutamyl-tRNA(Gln) amidotransferase subunit F, mitochondrial
T2 sequence (Q03557 1-464): T1 sequence (Q03557 1-464)
T2 sequence (P33893 16-541 partner): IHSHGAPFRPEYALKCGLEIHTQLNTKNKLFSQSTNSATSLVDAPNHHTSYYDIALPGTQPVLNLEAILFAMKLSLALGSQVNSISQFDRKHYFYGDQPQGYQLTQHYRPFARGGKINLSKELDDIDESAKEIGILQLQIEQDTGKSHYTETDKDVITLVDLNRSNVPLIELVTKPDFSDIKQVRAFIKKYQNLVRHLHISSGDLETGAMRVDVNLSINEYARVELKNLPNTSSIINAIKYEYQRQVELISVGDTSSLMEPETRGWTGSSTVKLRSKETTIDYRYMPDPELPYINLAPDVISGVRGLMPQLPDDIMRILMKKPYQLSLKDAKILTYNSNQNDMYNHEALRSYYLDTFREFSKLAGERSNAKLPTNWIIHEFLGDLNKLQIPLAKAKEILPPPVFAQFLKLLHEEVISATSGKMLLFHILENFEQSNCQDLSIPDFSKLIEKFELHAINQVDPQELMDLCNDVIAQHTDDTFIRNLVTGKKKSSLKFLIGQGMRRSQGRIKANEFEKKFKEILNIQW
T2 sequence (P53260 24-183 partner): T1 sequence (P53260 24-183 partner)
Briefly: glutaminase assay, […]Gln, TLC. Conditions: 50 μM [14C]L-glutamine; Glu-tRNA^Gln, ATP, 12 mM MgCl2, pH 7.2, 37°C; labelled compound. Type of assay: biochemical.

From paper PMC4027206, “Crystal structure of Saccharomyces cerevisiae mitochondrial GatFAB reveals a novel subunit assembly in tRNA-dependent amidotransferases” (Nucleic Acids Research, 2014) come the findings set out here.

Molecules are shown by their SMILES.

`NC(=O)CC[C@H](N)C(=O)O` [glutamine]: on GatFABΔHY, the “X-ray crystal structure, 2.0 Å” value is “the glutamine molecule is bound to the glutaminase site of GatA”. Further, the “glutaminase assay, [14C]Gln, TLC” value in assay [1] was “reduced activities in both GatA-mediated glutamine-hydrolysis and GatB-mediated transamidation when compared to that of the full-length”.
